{"source": "patent US20240382434A1", "about": "“CARYOPHYLLENE-CONTAINING COMPOSITION” (SUNSHO PHARMACEUTICAL CO., LTD., priority 2021, published 2024)", "type_in_all_cases": "physicochemical", "conditions_in_all_cases": "conclusion in words", "key": {"[1]": {"experiment": "Experiment 1: Volatilization of menthol", "method": "The prepared compositions were placed in petri dishes and used as test samples.\nEach test sample was allowed to volatilize without being covered under room temperature conditions for a certain period of time. The mass of each test sample was measured at a given time point. The volatilization amount and rate were calculated from the measured values.\nSimilarly, the volatilization amount and rate of a test sample using only caryophyllene were also calculated.\nThe time constant was calculated from the measurement results [by subtracting the volatilization amount of caryophyllene (theoretical value)].\nIn the table, the unit of the time constant is hour (h) (the same applies hereinafter)."}, "[2]": {"experiment": "Experiment 2: Dissolution of menthol", "protocol": "The amounts (parts by mass (pbm)) of the ingredients shown in the table below were placed into 20-mL lidded glass bottles.\nThe lidded glass bottles were placed into a water bath set at 25° C. After the temperature reached 25° C., the bottles were kept warm for 30 minutes to adjust the temperature.\nThe temperature was continuously kept at 25° C. With every 20 minutes, the lidded glass bottles were inverted for mixing and checked visually to see if the menthol had dissolved. The time to complete dissolution was recorded as the time required for the menthol to dissolve. Check was made every 20 minutes until 360 minutes had passed, and then 3 days later, visual check was made again. When the menthol had not dissolved after 3 days, the result was recorded as non-dissolved."}, "[3]": {"experiment": "Experiment 3: Freezing resistance", "protocol": "The amounts (parts by mass (pbm)) of the ingredients shown in the table below were mixed and placed into 20-mL lidded glass bottles to dissolve into solutions. The lidded glass bottles were placed into a water bath set at 25° C. After the temperature reached 25° C., the bottles were kept warm for 30 minutes to adjust the temperature.\nThen, the glass bottles were placed in a freezer (at approximately −20° C.). The freezer was opened every 30 minutes to visually check if each solution had solidified. The time point when the solution was partially solidified and the time point when the solution was completely solidified were recorded. Check was made every 30 minutes until 360 minutes had passed, and then 3 days later, visual check was made again. When the menthol had not solidified after 3 days, the result was recorded as non-solidified."}}}
{"substance": "Caryophyllene", "values": [{"measurement": "Effect on volatilization of menthol", "setting": "[1]", "result": "enhances volatilization of menthol"}, {"measurement": "Effect on dissolution of menthol", "setting": "[2]", "result": "enhanced dissolution of menthol"}, {"measurement": "Effect on freezing resistance of the MCT", "setting": "[3]", "result": "improved freezing resistance of the MCT"}]}
